Reference: patent publication US10130101B2 (priority 2015, dated 2018)

Assays:
[1] = system: pyrethroid resistant bed bugs, Cimex lectularius (ECL-05 strain); type: in vivo; settings: day 7; 0.05% imidacloprid formulation, not diluted; direct spray 0.50 g per replication
Description: Treatments 1 to 4 were diluted in acetone to 5.5% w/w. Treatment 5 was not diluted.
The ECL-05 strain of bugs was used in the study. This strain represents an aggregate colony of pyrethroid resistant strains of bed bugs from Minnesota, Wisconsin, Florida and New Jersey.
Adult male bed bugs, 5 to 6 weeks old, were sorted from the colonies at the University of Minnesota using a pair of soft tissue forceps (Fisher Scientific, Pittsburgh, Pa., USA). Bed bugs were transferred to Applicant and maintained in a glass jar with a mesh screen top, as described above, in an environmental chamber (Darwin Chamber Company, Saint Louis, Mo., USA) at 27° C. and 65% relative humidity until testing.
For testing, 10 adult males were transferred into specific bed bug spray containers using soft tissue forceps. Bed bug spray containers were constructed by placing a 150 mm Whatman filter paper (Fisher Scientific, Pittsburgh, Pa., USA) onto the top of a stainless steel, round ring (10 cm in diameter and 3.25 cm in height). A second stainless steel ring of similar dimensions was then stacked on top of the base ring creating a double-ring structure with a filter paper surface in between. The sides of the double ring structure were secured with laboratory labeling tape (Fisher Scientific, Pittsburgh, Pa., USA). […]

[2] = system: pyrethroid resistant bed bugs; experiment: whole plant or invertebrate; type: in vivo; settings: Cimex lectularius, 168 h; 7 days; imidacloprid at 0.05% w/w
Excerpt: For testing, 10 adult males were transferred into specific bed bug spray containers using soft tissue forceps. Bed bug spray containers were constructed by placing a 150 mm Whatman filter paper (Fisher Scientific, Pittsburgh, Pa., USA) onto the top of a stainless steel, round ring (10 cm in diameter and 3.25 cm in height). A second stainless steel ring of similar dimensions was then stacked on top of the base ring creating a double-ring structure with a filter paper surface in between. The sides of the double ring structure were secured with laboratory labeling tape (Fisher Scientific, Pittsburgh, Pa., USA). In the resulting setup, the filter paper provides a non-abrasive surface for bed bugs to rest on while it also serves to absorb any overspray in the container. Following the transfer of bed bugs from the colony jar, bed bugs were allowed to recover for 1 hour in the spray container before treatment application commenced.
Treatments were administered using a DeVilbiss 151 atomizer (The DeVilbiss Co., Glendale Heights, Ill., USA) attached to a Paasche D500 air compressor (Paasche Airbrush Company, Chicago, Ill., USA). Treatment volume was set at 0.50 g of treatment solution per replication. […]
Mortality at day 7 was analyzed by one-way analysis of variance (ANOVA). […]

O=[N+]([O-])NC1=NCCN1Cc1ccc(Cl)nc1 [Imidacloprid, imidacloprid]
Mortality (%) [1]: 100.0% | mortality at 0.05 % strength [2]: 100%
